# Measured values as given in patent US7910337B2, “Method for identifying drug-sensitizing antisense DNA fragments and use thereof” (priority 2006, dated 2011).
# Test system: S. aureus engineered with murB antisense
SMILES,"IC50 shift (sensitivity), antibiotic panel [fold]",IC50 shift
Cc1nnc(SCC2=C(C(=O)O)N3C(=O)[C@@H](NC(=O)Cn4cnnn4)[C@H]3SC2)s1 [cefozolin],≥ 4,
CO/N=C(\C(=O)N[C@@H]1C(=O)N2C(C(=O)O)=C(CSc3nc(=O)c(=O)[nH]n3C)CS[C@H]12)c1csc(N)n1 [ceftriaxone],≥ 4,
Cc1onc(-c2c(Cl)cccc2Cl)c1C(=O)N[C@@H]1C(=O)N2[C@@H]1SC(C)(C)[C@@H]2C(=O)O [dicloxacillin],≥ 4,5.8
CCN1CCN(C(=O)N[C@@H](C(=O)N[C@@H]2C(=O)N3[C@@H]2SC(C)(C)[C@@H]3C(=O)O)c2ccccc2)C(=O)C1=O [pipericillin],≥ 4,
CO/N=C(\C(=O)N[C@@H]1C(=O)N2C(C(=O)O)=C(COC(C)=O)CS[C@H]12)c1csc(N)n1 [cefotaxime],≥ 4,
CO[C@@]1(NC(=O)Cc2cccs2)C(=O)N2C(C(=O)O)=C(COC(N)=O)CS[C@@H]21 [cefoxitin],≥ 4,7.8
CO/N=C(\C(=O)N[C@@H]1C(=O)N2C(C(=O)[O-])=C(C[N+]3(C)CCCC3)CS[C@H]12)c1csc(N)n1 [cefepime],≥ 4,
Cc1onc(-c2ccccc2)c1C(=O)N[C@@H]1C(=O)N2[C@@H]1SC(C)(C)[C@@H]2C(=O)O [oxacillin],≥ 4,

# Test system: MetRS antisense clones
# Type: cell-based, B. anthracis
row,SMILES,difference in sensitivity with and without inducer
1,CO/N=C(\C(=O)N[C@@H]1C(=O)N2C(C(=O)O)=C(COC(C)=O)CS[C@H]12)c1csc(N)n1 [cefotaxime],no difference in sensitivity

# Test system: B. anthracis murB-2 antisense strain
row,SMILES,IC50 shift
1,CO/N=C(\C(=O)N[C@@H]1C(=O)N2C(C(=O)O)=C(COC(C)=O)CS[C@H]12)c1csc(N)n1 [cefotaxime],343
